Reference: ChEMBL document CHEMBL4308841, “Synthesis, in vitro antiproliferative activity, and kinase inhibitory effects of pyrazole-containing diarylureas and diarylamides” (Eur J Med Chem, 2018)

Key:
SW-620 = assay: Growth inhibition of human SW620 cells assessed as cell growth at 100 uM incubated for 48 hrs by sulforhodamine B assay relative to control; assay type: functional; conditions: SW-620, 48 h, read-out: Activity
NCI/ADR-RES = assay: Growth inhibition of human NCI/ADR-RES cells assessed as cell growth at 0.1 uM incubated for 48 hrs by sulforhodamine B assay relative to control; assay type: functional; conditions: read-out: Activity
SK-MEL-5 = assay: Growth inhibition of human SK-MEL-5 cells assessed as cell growth at 1 uM incubated for 48 hrs by sulforhodamine B assay relative to control; assay type: functional; conditions: SK-MEL-5, 48 h, read-out: Activity
NCI-H226 = assay: Growth inhibition of human NCI-H226 cells assessed as cell growth at 1 uM incubated for 48 hrs by sulforhodamine B assay relative to control; assay type: functional; conditions: NCI-H226, 48 h, read-out: Activity
NCI-H522 = assay: Growth inhibition of human NCI-H522 cells incubated for 48 hrs by sulforhodamine B assay; assay type: functional, cell-based; conditions: NCI-H522, 48 h
LOX IMVI = assay: Growth inhibition of human LOXIMVI cells assessed as cell growth at 1 uM incubated for 48 hrs by sulforhodamine B assay relative to control; assay type: functional; conditions: read-out: Activity
OVCAR-8 = assay: Growth inhibition of human OVCAR8 cells assessed as cell growth at 0.01 uM incubated for 48 hrs by sulforhodamine B assay relative to control; assay type: functional; conditions: OVCAR-8, 48 h, read-out: Activity
KM12 = assay: Growth inhibition of human KM12 cells assessed as cell growth at 0.1 uM incubated for 48 hrs by sulforhodamine B assay relative to control; assay type: functional; conditions: KM12, 48 h, read-out: Activity
MDA-MB-231 = assay: Growth inhibition of human MDA-MB-231 cells assessed as cell growth at 0.1 uM incubated for 48 hrs by sulforhodamine B assay relative to control; assay type: functional; conditions: MDA-MB-231, 48 h, read-out: Activity
DU-145 = assay: Growth inhibition of human DU145 cells assessed as cell growth at 0.1 uM incubated for 48 hrs by sulforhodamine B assay relative to control; assay type: functional; conditions: DU-145, 48 h, read-out: Activity
MDA-MB-435 [1] = assay: Growth inhibition of human MDA-MB-435 cells assessed as cell growth at 100 uM incubated for 48 hrs by sulforhodamine B assay relative to control; assay type: functional; conditions: MDA-MB-435, 48 h, read-out: Activity
NCI-H23 = assay: Growth inhibition of human NCI-H23 cells assessed as cell growth at 0.01 uM incubated for 48 hrs by sulforhodamine B assay relative to control; assay type: functional; conditions: NCI-H23, 48 h, read-out: Activity
A498 = assay: Growth inhibition of human A498 cells assessed as cell growth at 0.01 uM incubated for 48 hrs by sulforhodamine B assay relative to control; assay type: functional; conditions: A498, 48 h, read-out: Activity
MDA-MB-435 [2] = assay: Growth inhibition of human MDA-MB-435 cells assessed as cell growth at 0.01 uM incubated for 48 hrs by sulforhodamine B assay relative to control; assay type: functional; conditions: MDA-MB-435, 48 h, read-out: Activity
SNB-19 = assay: Growth inhibition of human SNB19 cells assessed as cell growth at 0.01 uM incubated for 48 hrs by sulforhodamine B assay relative to control; assay type: functional; conditions: SNB-19, 48 h, read-out: Activity
HT-29 = assay: Growth inhibition of human HT-29 cells assessed as cell growth at 100 uM incubated for 48 hrs by sulforhodamine B assay relative to control; assay type: functional; conditions: HT-29, 48 h, read-out: Activity
SN12C = assay: Growth inhibition of human SN12C cells incubated for 48 hrs by sulforhodamine B assay; assay type: functional, cell-based
IGROV-1 = assay: Growth inhibition of human IGROV1 cells assessed as cell growth at 100 uM incubated for 48 hrs by sulforhodamine B assay relative to control; assay type: functional; conditions: IGROV-1, 48 h, read-out: Activity
SK-OV-3 = assay: Growth inhibition of human SKOV3 cells assessed as cell growth at 0.01 uM incubated for 48 hrs by sulforhodamine B assay relative to control; assay type: functional; conditions: SK-OV-3, 48 h, read-out: Activity
MDA-MB-468 = assay: Growth inhibition of human MDA-MB-468 cells assessed as cell growth at 0.1 uM incubated for 48 hrs by sulforhodamine B assay relative to control; assay type: functional; conditions: MDA-MB-468, 48 h, read-out: Activity
A549 = assay: Growth inhibition of human A549/ATCC cells assessed as cell growth at 0.01 uM incubated for 48 hrs by sulforhodamine B assay relative to control; assay type: functional; conditions: A549, 48 h, read-out: Activity
SF-539 = assay: Growth inhibition of human SF539 cells assessed as cell growth at 1 uM incubated for 48 hrs by sulforhodamine B assay relative to control; assay type: functional; conditions: SF-539, 48 h, read-out: Activity
Hs-578T = assay: Growth inhibition of human Hs578T cells assessed as cell growth at 0.1 uM incubated for 48 hrs by sulforhodamine B assay relative to control; assay type: functional; conditions: read-out: Activity
SR = assay: Growth inhibition of human SR cells assessed as cell growth at 0.1 uM incubated for 48 hrs by sulforhodamine B assay relative to control; assay type: functional; conditions: read-out: Activity
SF-268 = assay: Growth inhibition of human SF268 cells assessed as cell growth at 100 uM incubated for 48 hrs by sulforhodamine B assay relative to control; assay type: functional; conditions: SF-268, 48 h, read-out: Activity
BT-549 [3] = assay: Growth inhibition of human BT549 cells assessed as cell growth at 0.01 uM incubated for 48 hrs by sulforhodamine B assay relative to control; assay type: functional; conditions: BT-549, 48 h, read-out: Activity
COLO 205 = assay: Growth inhibition of human COLO205 cells incubated for 48 hrs by sulforhodamine B assay; assay type: functional, cell-based; conditions: COLO 205, 48 h
K562 = assay: Growth inhibition of human K562 cells incubated for 48 hrs by sulforhodamine B assay; assay type: functional, cell-based; conditions: K562, 48 h
SK-MEL-2 = assay: Growth inhibition of human SK-MEL-2 cells assessed as cell growth at 0.01 uM incubated for 48 hrs by sulforhodamine B assay relative to control; assay type: functional; conditions: SK-MEL-2, 48 h, read-out: Activity
BT-549 [4] = assay: Growth inhibition of human BT549 cells assessed as cell growth at 1 uM incubated for 48 hrs by sulforhodamine B assay relative to control; assay type: functional; conditions: BT-549, 48 h, read-out: Activity
[5] = read-out: LC50 (the source's name)
[6] = read-out: pLC50 (the source's name) (converted)

Molecule O=C(Nc1cccc(-n2cc(-c3ccncc3)c(-c3cc(O)cc(Cl)c3)n2)c1)c1cc(C(F)(F)F)cc(C(F)(F)F)c1 has a growth at 100 µM (SW-620) of 13%, a growth at 0.1 µM (NCI/ADR-RES) of 100% and a growth at 1 µM (SK-MEL-5) of 90%. It also gave a growth at 1 µM (NCI-H226) of 91%, a GI50 (NCI-H522; read-out: GI50) of 1.5 µM and a CC50 (NCI-H522; [5]) of over 100 µM. It also gave a TGI (NCI-H522; read-out: TGI) of 83.7 µM, a GI50 (NCI-H522; read-out: pGI50 (converted)) of 1.58 µM and a CC50 (NCI-H522; [6]) of over 100 µM. It also gave a TGI (NCI-H522; read-out: pTGI (converted)) of 8.32 µM, a growth at 1 µM (LOX IMVI) of 97% and a growth at 0.01 µM (OVCAR-8) of 98%. It also gave a growth at 0.1 µM (KM12) of 97%, a growth at 0.1 µM (MDA-MB-231) of 94% and a growth at 0.1 µM (DU-145) of 99%. It also gave a growth at 100 µM (MDA-MB-435 [1]) of 3%, a growth at 0.01 µM (NCI-H23) of 94% and a growth at 0.01 µM (A498) of 53%. The growth at 0.01 µM (MDA-MB-435 [2]) was 91%, the growth at 0.01 µM (SNB-19) was 97% and the growth at 100 µM (HT-29) was -5%. The GI50 (SN12C; read-out: GI50) was 4.77 µM, the LC50 (SN12C; read-out: LC50) was over 100 µM and the TGI (SN12C; read-out: TGI) was over 100 µM. It also gave a GI50 (SN12C; read-out: pGI50 (converted)) of 4.79 µM, an LC50 (SN12C; read-out: pLC50 (converted)) of over 100 µM and a TGI (SN12C; read-out: pTGI (converted)) of over 100 µM. The growth at 100 µM (IGROV-1) was 22%, the growth at 0.01 µM (SK-OV-3) was 102% and the growth at 0.1 µM (MDA-MB-468) was 95%. The growth at 0.01 µM (A549) was 95%, the growth at 1 µM (SF-539) was 91% and the growth at 0.1 µM (Hs-578T) was 92%. It also gave a growth at 0.1 µM (SR) of 94%, a growth at 100 µM (SF-268) of 31% and a growth at 0.01 µM (BT-549 [3]) of 95%. For the same molecule, the GI50 (COLO 205; read-out: GI50) was 2.32 µM, the CC50 (COLO 205; [5]) was over 100 µM and the TGI (COLO 205; read-out: TGI) was 57.4 µM. For the same molecule, the GI50 (COLO 205; read-out: pGI50 (converted)) was 2.34 µM, the CC50 (COLO 205; [6]) was over 100 µM and the TGI (COLO 205; read-out: pTGI (converted)) was 5.75 µM. The GI50 (K562; read-out: GI50) was 3.24 µM, the LC50 (K562; read-out: LC50) was over 100 µM and the TGI (K562; read-out: TGI) was over 100 µM. The GI50 (K562; read-out: pGI50 (converted)) was 3.24 µM, the LC50 (K562; read-out: pLC50 (converted)) was over 100 µM and the TGI (K562; read-out: pTGI (converted)) was over 100 µM. The growth at 0.01 µM (SK-MEL-2) was 95% and the growth at 1 µM (BT-549 [4]) was 101%.
